The NIST ThermoML archive (doi:10.1021/je900410j)
Numbers after ± are expanded uncertainties.

Conditions: Crystal; DTA

| Structure (SMILES) | Normal melting temperature |
| --- | --- |
| CCCCCCCC(=O)OCC(COC(=O)CCCCCCC)OC(=O)CCCCCCC [1,2,3-propanetriol trioctanoate] | 9.60 ± 0.53 °C |
| CCCCCCCC/C=C\CCCCCCCC(=O)OCC(COC(=O)CCCCCCC/C=C\CCCCCCCC)OC(=O)CCCCCCC/C=C\CCCCCCCC [1,2,3-tri(cis-9-octadecenoyl)glycerol] | 5.27 ± 0.53 °C |

Further lines, results first:

| Normal melting temperature | Structure (SMILES) |
| --- | --- |
| 63.32 ± 0.53 °C | CCCCCCCCCCCCCCCC(=O)O [hexadecanoic acid] |
| 70.23 ± 0.53 °C | CCCCCCCCCCCCCCCCCC(=O)O [octadecanoic acid] |
| 55.41 ± 0.53 °C | CCCCCCCCCCCCCC(=O)O [tetradecanoic acid] |
| -22.0 ± 0.53 °C | CC/C=C\C/C=C\C/C=C\CCCCCCCC(=O)OCC(COC(=O)CCCCCCC/C=C\C/C=C\C/C=C\CC)OC(=O)CCCCCCC/C=C\C/C=C\C/C=C\CC [trilinolenin] |
